According to PubChem BioAssay AID2060894 (Molecular Pharmacology Branch, DTP, NCI, 2025):

Tested on: K12877-001-R-J1-PDC complex spheroid viability
Experiment: Anticancer human tumor K12877-001-R-J1-PDC patient-derived lung adenocarcinoma cell line growth inhibition [RAS]
Settings: for IC50: curve of first compound; for viability, T/C: stronger effect = lower value
Method in brief: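 Multi-cell-type spheroids: tumor cells plus HUVEC endothelial cells and mesenchymal stem cells. RAS-pathway inhibitors were combined with targeted agents, each dosed in half-log steps down from clinical Cmax, or from 10 microM when Cmax was unknown.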
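Further: spheroids exposed to agents for one week before readout.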
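Wherever viability, T/C is given: tumour cells co-cultured with HUVEC and mesenchymal stem cells in spheroids.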

C[C@@H](NC(=O)c1ncnc(N)c1Cl)c1ncc(C(=O)Nc2cc(C(F)(F)F)c(Cl)cn2)s1 + C=CC(=O)N1CCN(c2nc(OCC3CCCN3C)nc3c(F)c(-c4nc(N)cc(C)c4C(F)(F)F)c(Cl)cc23)C(C)C1
IC50 (second compound 0.00316 µM): > 10000 nM
IC50 (second compound 0.01 µM): > 10000 nM
IC50 (second compound 0.0316 µM): > 10000 nM
IC50 (second compound 0.1 µM): > 10000 nM
IC50 (second compound 0.316 µM): > 10000 nM
IC50 (second compound 1 µM): > 10000 nM
viability, T/C (second compound 0.00316 µM, first compound 0.0316 µM): 94.8%
viability, T/C (second compound 0.00316 µM, first compound 0.1 µM): 89.7%
viability, T/C (second compound 0.00316 µM, first compound 0.316 µM): 95.6%
viability, T/C (second compound 0.00316 µM, first compound 1 µM): 99.1%
viability, T/C (second compound 0.00316 µM, first compound 3.16 µM): 101%
viability, T/C (second compound 0.00316 µM, first compound 10 µM): 99.8%
viability, T/C (second compound 0.01 µM, first compound 0.0316 µM): 96.8%
viability, T/C (second compound 0.01 µM, first compound 0.1 µM): 82.5%
viability, T/C (second compound 0.01 µM, first compound 0.316 µM): 92.6%
viability, T/C (second compound 0.01 µM, first compound 1 µM): 92.9%
viability, T/C (second compound 0.01 µM, first compound 3.16 µM): 97.1%
viability, T/C (second compound 0.01 µM, first compound 10 µM): 85.4%
viability, T/C (second compound 0.0316 µM, first compound 0.0316 µM): 91%
viability, T/C (second compound 0.0316 µM, first compound 0.1 µM): 86.9%
viability, T/C (second compound 0.0316 µM, first compound 0.316 µM): 74.3%
viability, T/C (second compound 0.0316 µM, first compound 1 µM): 90.1%
viability, T/C (second compound 0.0316 µM, first compound 3.16 µM): 86.8%
viability, T/C (second compound 0.0316 µM, first compound 10 µM): 96.5%
viability, T/C (second compound 0.1 µM, first compound 0.0316 µM): 89.6%
viability, T/C (second compound 0.1 µM, first compound 0.1 µM): 83.5%
viability, T/C (second compound 0.1 µM, first compound 0.316 µM): 84.7%
viability, T/C (second compound 0.1 µM, first compound 1 µM): 90.4%
viability, T/C (second compound 0.1 µM, first compound 3.16 µM): 83.7%
viability, T/C (second compound 0.1 µM, first compound 10 µM): 85.2%
viability, T/C (second compound 0.316 µM, first compound 0.0316 µM): 81.4%
viability, T/C (second compound 0.316 µM, first compound 0.1 µM): 81.8%
viability, T/C (second compound 0.316 µM, first compound 0.316 µM): 77.1%
viability, T/C (second compound 0.316 µM, first compound 1 µM): 83.6%
viability, T/C (second compound 0.316 µM, first compound 3.16 µM): 83.1%
viability, T/C (second compound 0.316 µM, first compound 10 µM): 116%
viability, T/C (second compound 1 µM, first compound 0.0316 µM): 75%
viability, T/C (second compound 1 µM, first compound 0.1 µM): 75.8%
viability, T/C (second compound 1 µM, first compound 0.316 µM): 89.5%
viability, T/C (second compound 1 µM, first compound 1 µM): 92.5%
viability, T/C (second compound 1 µM, first compound 3.16 µM): 91.1%
viability, T/C (second compound 1 µM, first compound 10 µM): 113%

CC(C)n1nc(-c2ccc3oc(N)nc3c2)c2c(N)ncnc21 + CCn1c(-c2cccnc2C(C)OC)c2c3cc(ccc31)N1CCOC(CC(NC(=O)C(C(C)C)N(C)C(=O)C3(F)CCN(C(=O)C#CC(C)(C)N(C)C)CC3)C(=O)N3CCCC(N3)C(=O)OCC(C)(C)C2)C1
IC50 (second compound 0.000949 µM): 9.24 nM
IC50 (second compound 0.003 µM): 6.95 nM
IC50 (second compound 0.00949 µM): 8.2 nM
IC50 (second compound 0.03 µM): 6.3 nM
IC50 (second compound 0.0949 µM): 3.56 nM
IC50 (second compound 0.3 µM): 1.37 nM
viability, T/C (second compound 0.000949 µM, first compound 0.000316 µM): 81.6%
viability, T/C (second compound 0.000949 µM, first compound 0.001 µM): 81.3%
viability, T/C (second compound 0.000949 µM, first compound 0.00316 µM): 78.2%
viability, T/C (second compound 0.000949 µM, first compound 0.01 µM): 47.4%
viability, T/C (second compound 0.000949 µM, first compound 0.0316 µM): 18.7%
viability, T/C (second compound 0.000949 µM, first compound 0.1 µM): 11.9%
viability, T/C (second compound 0.003 µM, first compound 0.000316 µM): 77.6%
viability, T/C (second compound 0.003 µM, first compound 0.001 µM): 80.9%
viability, T/C (second compound 0.003 µM, first compound 0.00316 µM): 66.2%
viability, T/C (second compound 0.003 µM, first compound 0.01 µM): 41.8%
viability, T/C (second compound 0.003 µM, first compound 0.0316 µM): 20.4%
viability, T/C (second compound 0.003 µM, first compound 0.1 µM): 11%
viability, T/C (second compound 0.00949 µM, first compound 0.000316 µM): 77.5%
viability, T/C (second compound 0.00949 µM, first compound 0.001 µM): 76.9%
viability, T/C (second compound 0.00949 µM, first compound 0.00316 µM): 63.4%
viability, T/C (second compound 0.00949 µM, first compound 0.01 µM): 50%
viability, T/C (second compound 0.00949 µM, first compound 0.0316 µM): 16.2%
viability, T/C (second compound 0.00949 µM, first compound 0.1 µM): 8.87%
viability, T/C (second compound 0.03 µM, first compound 0.000316 µM): 69.3%
viability, T/C (second compound 0.03 µM, first compound 0.001 µM): 69.6%
viability, T/C (second compound 0.03 µM, first compound 0.00316 µM): 59.1%
viability, T/C (second compound 0.03 µM, first compound 0.01 µM): 44%
viability, T/C (second compound 0.03 µM, first compound 0.0316 µM): 18.4%
viability, T/C (second compound 0.03 µM, first compound 0.1 µM): 7.89%
viability, T/C (second compound 0.0949 µM, first compound 0.000316 µM): 68.7%
viability, T/C (second compound 0.0949 µM, first compound 0.001 µM): 61.4%
viability, T/C (second compound 0.0949 µM, first compound 0.00316 µM): 50%
viability, T/C (second compound 0.0949 µM, first compound 0.01 µM): 37.8%
viability, T/C (second compound 0.0949 µM, first compound 0.0316 µM): 12.2%
viability, T/C (second compound 0.0949 µM, first compound 0.1 µM): 7.05%
viability, T/C (second compound 0.3 µM, first compound 0.000316 µM): 65%
viability, T/C (second compound 0.3 µM, first compound 0.001 µM): 53.1%
viability, T/C (second compound 0.3 µM, first compound 0.00316 µM): 39.8%
viability, T/C (second compound 0.3 µM, first compound 0.01 µM): 28.8%
viability, T/C (second compound 0.3 µM, first compound 0.0316 µM): 12.6%
viability, T/C (second compound 0.3 µM, first compound 0.1 µM): 6.48%

CCc1c2c(nc3ccc(O)cc13)-c1cc3c(c(=O)n1C2)COC(=O)[C@]3(O)CC + C=CC(=O)N1CCN(c2nc(OCC3CCCN3C)nc3c(F)c(-c4nc(N)cc(C)c4C(F)(F)F)c(Cl)cc23)C(C)C1
IC50 (second compound 0.00316 µM): 5.1 nM
IC50 (second compound 0.01 µM): 4.8 nM
IC50 (second compound 0.0316 µM): 4.04 nM
IC50 (second compound 0.1 µM): 4.57 nM
IC50 (second compound 0.316 µM): 4.75 nM
IC50 (second compound 1 µM): 4.35 nM
viability, T/C (second compound 0.00316 µM, first compound 0.000949 µM): 88.5%
viability, T/C (second compound 0.00316 µM, first compound 0.003 µM): 84%
viability, T/C (second compound 0.00316 µM, first compound 0.00949 µM): 10.2%
viability, T/C (second compound 0.00316 µM, first compound 0.03 µM): 4.07%
viability, T/C (second compound 0.00316 µM, first compound 0.0949 µM): 2.12%
viability, T/C (second compound 0.00316 µM, first compound 0.3 µM): 1.09%
viability, T/C (second compound 0.01 µM, first compound 0.000949 µM): 89%
viability, T/C (second compound 0.01 µM, first compound 0.003 µM): 77.8%
viability, T/C (second compound 0.01 µM, first compound 0.00949 µM): 9.78%
viability, T/C (second compound 0.01 µM, first compound 0.03 µM): 4.25%
viability, T/C (second compound 0.01 µM, first compound 0.0949 µM): 2.46%
viability, T/C (second compound 0.01 µM, first compound 0.3 µM): 1.37%
viability, T/C (second compound 0.0316 µM, first compound 0.000949 µM): 88.3%
viability, T/C (second compound 0.0316 µM, first compound 0.003 µM): 64.4%
viability, T/C (second compound 0.0316 µM, first compound 0.00949 µM): 8.38%
viability, T/C (second compound 0.0316 µM, first compound 0.03 µM): 4.14%
viability, T/C (second compound 0.0316 µM, first compound 0.0949 µM): 2.38%
viability, T/C (second compound 0.0316 µM, first compound 0.3 µM): 1.15%
viability, T/C (second compound 0.1 µM, first compound 0.000949 µM): 75.2%
viability, T/C (second compound 0.1 µM, first compound 0.003 µM): 73.2%
viability, T/C (second compound 0.1 µM, first compound 0.00949 µM): 9.95%
viability, T/C (second compound 0.1 µM, first compound 0.03 µM): 2.92%
viability, T/C (second compound 0.1 µM, first compound 0.0949 µM): 1.65%
viability, T/C (second compound 0.1 µM, first compound 0.3 µM): 1.21%
viability, T/C (second compound 0.316 µM, first compound 0.000949 µM): 83.4%
viability, T/C (second compound 0.316 µM, first compound 0.003 µM): 77.9%
viability, T/C (second compound 0.316 µM, first compound 0.00949 µM): 7.81%
viability, T/C (second compound 0.316 µM, first compound 0.03 µM): 3.82%
viability, T/C (second compound 0.316 µM, first compound 0.0949 µM): 2.34%
viability, T/C (second compound 0.316 µM, first compound 0.3 µM): 2.52%
viability, T/C (second compound 1 µM, first compound 0.000949 µM): 82.2%
viability, T/C (second compound 1 µM, first compound 0.003 µM): 69.9%
viability, T/C (second compound 1 µM, first compound 0.00949 µM): 8.23%
viability, T/C (second compound 1 µM, first compound 0.03 µM): 5.41%
viability, T/C (second compound 1 µM, first compound 0.0949 µM): 2.4%
viability, T/C (second compound 1 µM, first compound 0.3 µM): 1.32%
